From patent publication US20180214563A1, “IMMUNOSTIMULATORY NANOCARRIER” (University of Pittsburgh - Of the Commonwealth System of …, priority 2015, published 2018)

System: 4T1.2 cells
Test: In vitro cytotoxicity, MTT assay, 4T1.2
Type: cell-based, mouse
Conditions: 72 h
Procedure: 4T1.2 , PC3, Panc02, and B16 cells at 2000 cells/well were seeded in 96-well plates, respectively. […] After 3 days of incubation, 20 μL of 3-(4,5-dimethylthiazol-2-yl)-2,5-diphenyltetrazoliumbromide (MTT) in DPBS (5 mg/mL) was added to each well and cells were further incubated for 2 h. Medium was removed and MTT formazan crystals were solubilized by 100 μL of DMSO per well. Absorbance of each well was measured with a microplate reader at wavelength of 550 nm. Untreated wells were used as controls. Cell viability was calculated as [(ODtreated-ODblank)/(ODcontrol-ODblank)×100%].

CC(=O)O[C@H]1C(=O)[C@@]2(C)[C@H]([C@H](OC(=O)c3ccccc3)[C@]3(O)C[C@H](OC(=O)[C@H](O)[C@@H](NC(=O)c4ccccc4)c4ccccc4)C(C)=C1C3(C)C)[C@]1(OC(C)=O)CO[C@@H]1C[C@@H]2O [PTX, paclitaxel]
cytotoxicity (tumor cell growth inhibition): inhibited the tumor cell growth in a concentration-dependent manner
